Where only a bound is given, the exact number is not on record here.

One test deals with WDR5 (Homo sapiens, UniProt P61964). Kind of test: WDR5 HTRF binding assay. Particulars: read-out: (a) WDR5 HTRF Pep Val v.1[Inhibitor/IC50]Qualified AC50. In a few lines:
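In this HTRF displacement format, biotinylated MLL1 WIN peptide (3762-3773, 20 nM) binds WDR5 (6 nM) in 25 mM Hepes pH 7.5 with 100 mM NaCl, 2 mM DTT and 0.1% BSA for 20 min at rt. Detection used streptavidin-APC/anti-His-Eu for 1 hr. IC50 came from dose-response fits of normalized signal; 15 nM biotin-PEG-His peptide served as counter assay.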
Background: TR-FRET usually uses a lanthanide donor and a delayed reading to cut background.

Test [1] has as its target wild type MLL1 four-member complex (MLL1-4C) (Homo sapiens, UniProt P61964). Put plainly: MLL1 LC-MS assay (SAH production). Particulars: read-out: (b) MLL LCMS Peptide Val.v.1 Qualified AC50. The format is biochemical. In a few lines:
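SAH formation, measured by LC-MS/MS after a TFA quench containing d4-SAH, was normalised to no-compound and no-enzyme controls and fitted to a dose-response curve for IC50. Reactions ran 120 min at rt (pH 8.0 Tris buffer) with final 30 nM MLL1 four-member complex, 2.5 μM SAM and 10 μM biotinylated H3[1-21] peptide, after a 20-min enzyme/SAM-compound preincubation.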

The subject of another test is MV4-11 cells. Put plainly: MV4-11 6-day cell growth CTG (CellTiter-Glo) assay. The test is classed as cell-based. The following applies: Homo sapiens, MV4-11, 144 h, 6 days, read-out: (c) MLL/WDR5 cell proliferation assay//MLL/WDR5 proliferation MV4:11 Qualified AC50. In a few lines:
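IC50 comes from a dose-response fit of % inhibition relative to DMSO controls, with viable cells measured by CellTiter-Glo luminescence. Compounds were tested over 12 points (1:3, starting at 50 μM final) on MV4-11 cells plated at 300/well and grown 6 days.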
In general terms: ATP-based viability assays read luminescence as a measure of living cells.

`CCOc1cc(CN2CCc3c(CN4CC(F)(F)C4)cc(Cn4ccnc4NC)cc3C2=O)cnc1C#N` [Example 46, 5-((5((3,3-difluoroazetidin-1-yl)methyl)-7-((2-(methylamino)-1H-imidazol-1-yl)methyl)-1-oxo-3,4-dihydroisoquinolin-2(1H)-yl)methyl)-3-ethoxypicolinonitrile]: at WDR5, the IC50 is 10 to 1000 nM. For the same compound, the AC50 (in test [1]; in the test on MV4-11 cells) was 10 to 1000 nM throughout.
As for `CCOc1cc([C@H](C)N2CCc3c(cc(Cn4cnc(C)c4)cc3-c3cn(C)nc3C)C2=O)ncc1C#N` [Example 276], the IC50 on WDR5 is less than 10 nM. Moreover, the AC50 (in test [1]; in the test on MV4-11 cells) was 10 to 1000 nM in each case.
As for `CNc1nccn1Cc1cc(CN2CC[C@@H](OC)C2)c2c(c1)C(=O)N([C@@H](C)c1cc(OC)c(F)cn1)CC2` [Example 36, 2-((S)-1-(5-fluoro-4-methoxypyridin-2-yl)ethyl)-5-(((R)-3-methoxypyrrolidin-1-yl)methyl)-7-((2-(methylamino)-1H-imidazol-1-yl)methyl)-3,4-dihydroisoquinolin-1(2H)-one], the IC50 on WDR5 fell in the range of 10 to 1000 nM. Also, the AC50 (in test [1]; with MV4-11 cells) was 10 to 1000 nM each time.
For `CNc1nccn1Cc1cc2c(c(-c3cc([C@H](C)O)cnc3Cl)c1)CCN(Cc1ccc(F)c(OC)c1)C2=O` (single isomer, unassigned) [Example 76], the IC50 at WDR5 was less than 10 nM. The AC50 (in test [1]; with MV4-11 cells) was 10 to 1000 nM each time.
As to `CCOc1cc([C@H](C)N2CCc3c(cc(Cn4ccnc4C)cc3-c3cn(C)c(=O)cc3C(F)F)C2=O)ncc1C#N` [Example 285], the IC50 at WDR5 was less than 10 nM. The results for the AC50 (in test [1]; in the test on MV4-11 cells) were 10 to 1000 nM and less than 10 nM, respectively.
In the case of `CCOc1cc([C@H](C)N2CCc3c(cc(CCN4C[C@@H](O)[C@H]4C)cc3-c3cc(C)ncc3C)C2=O)ncc1C#N` [Example 221], the IC50 at WDR5 was less than 10 nM. For the same compound, the AC50 (in test [1]; with MV4-11 cells) was 10 to 1000 nM throughout.
With `CCOc1cc([C@H](C)N2CCc3c(cc(CCN(C)CC)cc3-c3cc(C4CC4)cnc3C)C2=O)ncc1C#N` [Example 160, (S)-6-(1-(5-(5-cyclopropyl-2-methylpyridin-3-yl)-7-(2-(ethyl(methyl)amino)ethyl)-1-oxo-3,4-dihydroisoquinolin-2(1H)-yl)ethyl)-4-ethoxynicotinonitrile], the IC50 on WDR5 was less than 10 nM. For the same compound, the AC50 (in test [1]; in the test with MV4-11 cells) was 10 to 1000 nM in each case.
Turning to `CNc1nccn1Cc1cc(-c2cc(CO)cnc2Cl)c2ccn([C@H](C)c3cccc(OC)c3)c(=O)c2c1` [Example 103, (R)-5-(2-chloro-5-(hydroxymethyl)pyridin-3-yl)-2-(1-(3-methoxyphenyl)ethyl)-7-((2-(methylamino)-1H-imidazol-1-yl)methyl)isoquinolin-1(2H)-one], on WDR5, the IC50 was in the range of 10 to 1000 nM. The AC50 (in test [1]; with MV4-11 cells) was 10 to 1000 nM in each case.
`CCOc1cc(CN2CCc3c(cc(CCN(C)CC)cc3-c3cc(C)nnc3C)C2=O)ncc1C#N` [Example 189, 6-((5-(3,6-dimethylpyridazin-4-yl)-7-(2-(ethyl(methyl)amino)ethyl)-1-oxo-3,4-dihydroisoquinolin-2(1H)-yl)methyl)-4-ethoxynicotinonitrile]: the IC50 on WDR5 was less than 10 nM. The AC50 (in test [1]; in the test with MV4-11 cells) was 10 to 1000 nM throughout.
In the case of `CCOc1cc(CN2CCc3c(cc(Cn4ccnc4C)cc3-n3nc(C)nc3C(F)F)C2=O)ncc1C#N` [Example 298], on WDR5, the IC50 is less than 10 nM. The AC50 (in test [1]; in the test with MV4-11 cells) was 10 to 1000 nM in each case.
In the case of `CCOc1cc([C@H](C)N2CCc3c(cc(CCN(C)CCOC)cc3-c3cn(C)c(=O)cc3Cl)C2=O)ncc1C#N` [Example 240], the IC50 at WDR5 is less than 10 nM. The AC50 (in test [1]; in the test with MV4-11 cells) was 10 to 1000 nM each time.

These data come from patent publication US20220289732A1, “HETEROCYCLIC WDR5 INHIBITORS AS ANTI-CANCER COMPOUNDS” (NOVARTIS AG, priority 2019, published 2022).
